In patent US20100016221A1, “METHOD OF DEGRADING PROTEIN BY CHAPERONE-MEDIATED AUTOPHAGY” (RIKEN, priority 2008, published 2010):

How the values were obtained:
tNhtt-60Q = biological target: T1, tNhtt-60Q (Homo sapiens, UniProt P42858, INS38QQQQQQQQQQQQQQQQQQQQQQQQQQQQQQQQQQQQQQQ); experiment: Dot blot of purified intact lysosomes from Neuro2a cells co-transfected with tNhtt-60Q; format: cell-based; conditions: 16 hours
T1 construct: N-terminal fragment of human huntington exon 1 (tNhtt) encoding 60 CAG repeats; expressed in transfected cells; host or cells: Neuro2a cells, transient co-transfection
T1 sequence (P42858 with tags, fused parts or gaps with the stated changes): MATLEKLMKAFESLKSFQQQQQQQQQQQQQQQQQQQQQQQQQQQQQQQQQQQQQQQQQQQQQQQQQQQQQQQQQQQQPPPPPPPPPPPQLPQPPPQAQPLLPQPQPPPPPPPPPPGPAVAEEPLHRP
Description: We used a modification of the previously described method for the purification of lysosomes from CHO cells (E. A. Madden, B. Storrie, Anal. Biochem. 163, 2 (1987), E. A. Madden, J. B. Wirt, B. Storrie, Arch. Biochem. Biophys. 257, 1 (1987)). Neuro2a cells grown in 10 cm dishes were co-transfected with tNhtt-60Q and tested constructs, and after 16 hrs of incubation, cells were washed with ice cold PBS and homogenized by ten strokes. The homogenate was centrifuged at 1300 g for 5 min. The supernatant was decanted and placed on ice. The nuclear fraction was resuspended in 0.25 M sucrose and centrifuged at 1300 g for 5 min. This step was repeated 3 times and the supernatants from each wash were pooled to give a total post-nuclear supernatant (PNS). All the solutions used for the preparation of the discontinuous gradient were in 0.25 M sucrose. Gradients were prepared in cellulose nitrate tubes for Beckman SW40 rotor. Two ml of 35% Histodenz (Sigma) was overlaid with 2 ml of 17% Histodenz followed by 5 ml of 6% Percoll (Sigma). The tubes were then filled with 4.8 ml of PNS. […]
Cells were washed twice with ice-cold PBS, scraped, and resuspended in lysis buffer (0.5% Triton X-100 in PBS, 0.5 mM phenylmethylsulfonyl fluoride, Complete protease inhibitor mixture (Roche Applied Sciences)). […] Immunoreactive proteins were detected with enhanced chemiluminescence reagents (Amersham Biosciences). […]

150Q-nls Neuro2a cells = experiment: Cell death assay (propidium iodide uptake) in 150Q-nls Neuro2a cells; format: cell-based, mouse; conditions: after 48 hours of induction
Description: (§1) Mouse neuroblastoma (Neuro2a) cells were maintained in Dulbecco's modified Eagle's medium (Sigma) supplemented with 10% heat-inactivated fetal bovine serum (Sigma), 100 U/ml penicillin and 100 μg/ml streptomycin (Invitrogen) at 37° C. in an atmosphere containing 5% CO2 and 95% air. Establishment of stable Neuro2a cell lines with the ecdysone-inducible mammalian expression system (Invitrogen), that express tNhtt-EGFP-16Q (16Q Neuro2a cells), tNhtt-EGFP-150Q (150Q Neuro2a cells) and tNhtt-EGFP-150Q-nls (150Q-nls Neuro2a cells) has been described earlier (T. Nagai et al., supra, H. Doi et al., supra, E. A. Zemskov et al., J Neurochem. 87, 2 (2003)). Neuro2a cells were differentiated with 5mM dbcAMP (N^6, 2′-O-dibutyryladenosine-3′,5′-cyclic monophosphate sodium salt) (Nacalai Tesque) and induced to express tNhtt-polyQ with 2 μM ponasterone A (ponA; Invitrogen) for indicated times. Neuro2a/FRT/TR cell line was generated as described in the protocol for Flp-in/T-Rex system (Invitrogen). […]
For quantification of cell death, 5 μg/ml each of Hoechst 33342 and propidium iodide (PI) were added to differentiated and induced Neuro2a cells transiently transfected with either of the tested constructs (FIG. 6A). After 10 minutes at 37° C., the number of cells with PI uptake over the total number of cells was calculated by ArrayScan.

[1] = system: polyQ inclusions in 150Q-nls Neuro2a cells (tNhtt-EGFP-150Q-nls); experiment: ArrayScan quantification of polyQ inclusion formation in inducible 150Q-nls Neuro2a cells; format: cell-based, mouse; conditions: 150Q-nls Neuro2a cells, constructs without mRFP, 48 hours after induction
Description: as §1, with “(Invitrogen). Neuro2a tNhtt-62Q-kikGR cell line was generated by transfecting Neuro2a/FRT/TR cells with the pFRT-HD62-KikGR and pOG44 (Invitrogen) constructs using Lipofectamine 2000 reagent and selected with 200 μg/ml hygromycin. The expression of the pFRT-tNhtt-62Q-KikGR was induced by 18 doxycycline treatment of the cells. For the photo-induced kikGR cleavage, cells were exposed to ˜400 nm wavelength for 5 minutes.” for “(Invitrogen).”
For the quantification of the inclusions, cells were grown in 24-well plates for indicated periods, fixed in 4% paraformaldehyde, washed and incubated with Hoechst 33258 at 1/1000 dilution in PBS. Cells were analyzed by ArrayScan® V^TI High Content Screening (HSC) Reader (Cellomics) using Target Activation BioApplication (TABA). TABA analyzes images acquired by a HSC Reader and provides measurements of the intracellular fluorescence intensity and localization on a cell-by-cell basis.
In each well, at least 10000 cells were counted and quantified for the presence of the inclusions. Nuclei stained with Hoechst 33285 provided the autofocus target and their count gave the exact number of the quantified cells. The screening itself consisted of two scans using Hoechst, FITC (for GFP) and TRITC (for RFP) fluorescence. Firstly, number of inclusions in transfected cells was calculated when fluorescent spots at size of at least 5 pixels (magnification 20× for cytoplasmic and 40× for nuclear aggregates) with average GFP intensity more than 1500 in the RFP background were counted. […] The percentage of the cells with aggregates was then calculated. When the constructs without mRFP were used for transfection, the procedure was same, except the RFP intensity was not measured. […] Data was generated from the quantification of more than 250,000 cells in each experimental set-up.

Substance: HSC70bm-(QBP1)2 (MARVKKDQAEPLHRKFERQPPGSNWKWWPGIFDSNWKWWPGIFD) [HQ]
- translocation of expanded polyQ toward the lysosomes (tNhtt-60Q): efficient translocation
- decrease of the percentage of PI-positive cells (150Q-nls Neuro2a cells): 47.2%
- reduction of aggregation compared to control counterparts (S and HS) [1]: 45.2%
